± gives the expanded uncertainty stated by the source.
Columns and labels:
[1] = 101 kPa, Liquid; for electrical conductivity: Qcond 2400 VWR international / cell constant, 1.05; for viscosity: Concentric cylinders viscometry; for mass density: Vibrating tube method
[2] = xn = mol fraction of the nth substance listed; settings: 101 kPa, Liquid, x2 = 0; for electrical conductivity: Qcond 2400 VWR international / cell constant, 1.05; for viscosity: Concentric cylinders viscometry; for mass density: Vibrating tube method

CCCCn1cc[n+](C)c1C.[N-]=[N+]=[N-] [1-butyl-2,3-dimethylimidazolium azide]
[1]
Settings | electrical conductivity [S/m] | mass density [kg/m3] | viscosity [mPa·s]
303.15 K | 0.0488 ± 0.0019 | – | –
308.15 K | 0.0756 ± 0.003 | – | –
313.15 K | 0.112 ± 0.0045 | 1070.46 ± 2.2 | 338.19 ± 10
318.15 K | 0.159 ± 0.0064 | – | –
323.15 K | 0.219 ± 0.0088 | 1065.14 ± 2.2 | 176.04 ± 4.2
328.15 K | 0.294 ± 0.012 | – | –
333.15 K | 0.383 ± 0.015 | 1059.83 ± 2.2 | 101.63 ± 2
338.15 K | 0.49 ± 0.02 | – | –
343.15 K | 0.614 ± 0.025 | 1054.52 ± 2.2 | 63.6 ± 1.1
348.15 K | 0.756 ± 0.03 | – | –
353.15 K | 0.918 ± 0.037 | 1049.21 ± 2.1 | 42.44 ± 0.73
358.15 K | 1.1 ± 0.044 | – | –
363.15 K | 1.3 ± 0.052 | 1043.9 ± 2.1 | 29.82 ± 0.51
368.15 K | 1.52 ± 0.061 | – | –
373.15 K | – | 1038.59 ± 2.1 | 21.87 ± 0.38

CCCCn1cc[n+](C)c1C.F[B-](F)(F)F [1-butyl-2,3-dimethylimidazolium tetrafluoroborate]
[1]
Settings | electrical conductivity [S/m] | mass density [kg/m3] | viscosity [mPa·s]
303.15 K | 0.0758 ± 0.003 | – | –
308.15 K | 0.106 ± 0.0042 | – | –
313.15 K | 0.145 ± 0.0058 | 1182.05 ± 2.7 | 364.17 ± 11
318.15 K | 0.194 ± 0.0077 | – | –
323.15 K | 0.254 ± 0.01 | 1175.57 ± 2.7 | 204.79 ± 5.1
328.15 K | 0.327 ± 0.013 | – | –
333.15 K | 0.415 ± 0.017 | 1169.08 ± 2.6 | 124.34 ± 2.6
338.15 K | 0.518 ± 0.021 | – | –
343.15 K | 0.639 ± 0.026 | 1162.6 ± 2.6 | 80.35 ± 1.4
348.15 K | 0.779 ± 0.031 | – | –
353.15 K | 0.939 ± 0.038 | 1156.12 ± 2.6 | 54.65 ± 0.93
358.15 K | 1.12 ± 0.045 | – | –
363.15 K | 1.32 ± 0.053 | 1149.64 ± 2.5 | 38.8 ± 0.67
368.15 K | 1.55 ± 0.062 | – | –
373.15 K | – | 1143.15 ± 2.5 | 28.56 ± 0.49

CCCCn1cc[n+](C)c1C.F[B-](F)(F)F [1-butyl-2,3-dimethylimidazolium tetrafluoroborate] + CCCCn1cc[n+](C)c1C.[N-]=[N+]=[N-]
[2]
Settings | electrical conductivity [S/m] | mass density [kg/m3] | viscosity [mPa·s]
303.15 K | 0.0758 ± 0.003 | – | –
308.15 K | 0.106 ± 0.0042 | – | –
313.15 K | 0.145 ± 0.0058 | 1182.05 ± 2.7 | 364.17 ± 11
318.15 K | 0.194 ± 0.0077 | – | –
323.15 K | 0.254 ± 0.01 | 1175.57 ± 2.7 | 204.79 ± 5.1
328.15 K | 0.327 ± 0.013 | – | –
333.15 K | 0.415 ± 0.017 | 1169.08 ± 2.6 | 124.34 ± 2.6
338.15 K | 0.518 ± 0.021 | – | –
343.15 K | 0.639 ± 0.026 | 1162.6 ± 2.6 | 80.35 ± 1.4
348.15 K | 0.779 ± 0.031 | – | –
353.15 K | 0.939 ± 0.038 | 1156.12 ± 2.6 | 54.65 ± 0.93
358.15 K | 1.12 ± 0.045 | – | –
363.15 K | 1.32 ± 0.053 | 1149.64 ± 2.5 | 38.8 ± 0.67
368.15 K | 1.55 ± 0.062 | – | –
373.15 K | – | 1143.15 ± 2.5 | 28.56 ± 0.49

From the NIST ThermoML archive (doi:10.1021/je800636k)
